One may read the IC50 as the midpoint of a concentration-inhibition curve.

Each structure is given as a SMILES string.

The target of one test is GSNOR (Homo sapiens (Human), UniProt P11766). The experiment in a line: GSNOR assay (inhibition of GSNOR activity in vitro, change in 340 nm absorbance with GSNO/NADH). The conditions noted are these: GSNOR IC50, Table 1, racemates and separated enantiomers.
Sequence of GSNOR (P11766 whole entry): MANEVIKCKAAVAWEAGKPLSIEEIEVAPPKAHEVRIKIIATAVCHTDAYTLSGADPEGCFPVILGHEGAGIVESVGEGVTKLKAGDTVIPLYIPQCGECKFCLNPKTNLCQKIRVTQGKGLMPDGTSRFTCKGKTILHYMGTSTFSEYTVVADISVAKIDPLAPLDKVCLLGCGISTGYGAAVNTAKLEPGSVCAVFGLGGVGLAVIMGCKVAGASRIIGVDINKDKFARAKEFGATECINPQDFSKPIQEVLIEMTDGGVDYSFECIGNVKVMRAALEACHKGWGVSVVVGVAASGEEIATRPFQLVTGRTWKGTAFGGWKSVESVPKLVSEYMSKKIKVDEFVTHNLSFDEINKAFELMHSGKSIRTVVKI
Molecule `CCOc1cc([C@@H]2NC(=O)NC(c3cnn(C)c3)=C2c2ccsc2)cc(C(=O)O)c1O` [Example 146, (S)-3-ethoxy-2-hydroxy-5-(6-(1-methyl-1H-pyrazol-4-yl)-2-oxo-5-(thiophen-3-yl)-1,2,3,4-tetrahydropyrimidin-4-yl)benzoic acid] returned an IC50 of 13 nM.

For `Cn1cc(C2=C(c3ccsc3)[C@H](c3ccc(C(=O)O)c(O)c3)NC(=O)N2)cn1` [Example 169, (S)-2-hydroxy-4-(6-(1-methyl-1H-pyrazol-4-yl)-2-oxo-5-(thiophen-3-yl)-1,2,3,4-tetrahydropyrimidin-4-yl)benzoic acid], the half-inhibitory concentration (IC50) turned out to be 23 nM. This IC50 is about 1.8-fold higher than that of the molecule before.

Still in this test, the particulars now being: IC50, upper bound (about <).
Take `COc1cc(C2NC(=O)NC(c3ccccc3)=C2c2ccccc2)cc([N+](=O)[O-])c1O` (centres unmarked) [Example 9, 4-(4-hydroxy-3-methoxy-5-nitrophenyl)-5,6-diphenyl-3,4-dihydropyrimidin-2(1H)-one]: the IC50 was less than 100 nM.

As to `CCOc1cc(C2NC(=O)NC(c3ccccc3)=C2c2ccccc2F)cc([N+](=O)[O-])c1O` (centres unmarked) [Example 13, 4-(3-ethoxy-4-hydroxy-5-nitrophenyl)-5-(2-fluorophenyl)-6-phenyl-3,4-dihydropyrimidin-2(1H)-one], the IC50 is less than 100 nM. Regarding `CCOc1cc(C2NC(=O)NC(c3ccccc3)=C2c2cccc(OC)c2)cc([N+](=O)[O-])c1O` (centres unmarked) [Example 23, 4-(3-ethoxy-4-hydroxy-5-nitrophenyl)-5-(3-methoxyphenyl)-6-phenyl-3,4-dihydropyrimidin-2(1H)-one], the concentration for half-maximal inhibition (IC50) was less than 100 nM. In turn, `CCOc1cc(C2NC(=O)NC(c3ccccc3)=C2c2ccccc2C)cc([N+](=O)[O-])c1O` (centres unmarked) [Example 26, 4-(3-ethoxy-4-hydroxy-5-nitrophenyl)-6-phenyl-5-o-tolyl-3,4-dihydropyrimidin-2(1H)-one] had a half-inhibitory concentration (IC50) of less than 1000 nM.

Turning to `CCOc1cc(C2NC(=O)NC(c3ccccc3)=C2c2cccc(C#N)c2)cc([N+](=O)[O-])c1O` (centres unmarked) [Example 29, 3-(4-(3-ethoxy-4-hydroxy-5-nitrophenyl)-2-oxo-6-phenyl-1,2,3,4-tetrahydropyrimidin-5-yl)benzonitrile], the concentration for half-maximal inhibition (IC50) is less than 100 nM. `CCOc1cc(C2NC(=O)NC(c3cccc(C#N)c3)=C2c2ccccc2)cc([N+](=O)[O-])c1O` (centres unmarked) [Example 53, 3-(6-(3-ethoxy-4-hydroxy-5-nitrophenyl)-2-oxo-5-phenyl-1,2,3,6-tetrahydropyrimidin-4-yl)benzonitrile] had a half-maximal inhibitory concentration (IC50) of less than 100 nM. The molecule `CCOc1cc(C2NC(=O)NC(c3ccc4c(c3)OCO4)=C2c2ccccc2)cc([N+](=O)[O-])c1O` (centres unmarked) [Example 61, 6-(benzo[d][1,3]dioxol-5-yl)-4-(3-ethoxy-4-hydroxy-5-nitrophenyl)-5-phenyl-3,4-dihydropyrimidin-2(1H)-one] had a 50% inhibitory concentration (IC50) of less than 100 nM.

`CCOc1cc(C2NC(=O)NC(c3ccc(C#N)cc3)=C2c2ccccc2)cc([N+](=O)[O-])c1O` (centres unmarked) [Example 63, 4-(6-(3-ethoxy-4-hydroxy-5-nitrophenyl)-2-oxo-5-phenyl-1,2,3,6-tetrahydropyrimidin-4-yl)benzonitrile] came in with a concentration for half-maximal inhibition (IC50) of less than 100 nM. For the molecule `CCOc1cc(C2NC(=O)NC(c3ccccc3)=C2c2ccccc2)cc(C#N)c1O` (centres unmarked) [Example 69, 3-ethoxy-2-hydroxy-5-(2-oxo-5,6-diphenyl-1,2,3,4-tetrahydropyrimidin-4-yl)benzonitrile], the IC50 was less than 1000 nM. The molecule `CCOc1cc(C2NC(=O)NC(c3ccncc3)=C2c2ccccc2)cc([N+](=O)[O-])c1O` (centres unmarked) [Example 71, 4-(3-ethoxy-4-hydroxy-5-nitrophenyl)-5-phenyl-6-(pyridin-4-yl)-3,4-dihydropyrimidin-2(1H)-one] returned an IC50 of less than 100 nM.

For `CCOc1cc(C2NC(=O)NC(c3ccc(NC(C)=O)cc3)=C2c2ccccc2)cc([N+](=O)[O-])c1O` (centres unmarked) [Example 73, N-(4-(6-(3-ethoxy-4-hydroxy-5-nitrophenyl)-2-oxo-5-phenyl-1,2,3,6-tetrahydropyrimidin-4-yl)phenyl)acetamide], the half-inhibitory concentration (IC50) is less than 100 nM. Still for that read-out and setting: the value for `CCOc1cc(C2NC(=O)NC(c3cccc4ccccc34)=C2c2ccccc2)cc([N+](=O)[O-])c1O` (centres unmarked) [Example 81, 4-(3-ethoxy-4-hydroxy-5-nitrophenyl)-6-(naphthalen-1-yl)-5-phenyl-3,4-dihydropyrimidin-2(1H)-one] was less than 100 nM; that for `CCOc1cc(C2NC(=O)NC(c3ccc(NC(=O)OC)cc3)=C2c2ccccc2)cc([N+](=O)[O-])c1O` (centres unmarked) [Example 83, methyl 4-(6-(3-ethoxy-4-hydroxy-5-nitrophenyl)-2-oxo-5-phenyl-1,2,3,6-tetrahydropyrimidin-4-yl)phenylcarbamate] was less than 100 nM; that for `O=C1NC(c2ccccc2)=C(c2ccccc2)C(c2cccc(C(=O)O)c2)N1` (centres unmarked) [Example 93, 3-(2-oxo-5,6-diphenyl-1,2,3,4-tetrahydropyrimidin-4-yl)benzoic acid] was less than 100000 nM. Still for that read-out and setting: the value for `O=C1NC(c2ccccc2)=C(c2ccccc2)C(c2ccc(O)c([N+](=O)[O-])c2)N1` (centres unmarked) [Example 95, 4-(4-hydroxy-3-nitrophenyl)-5,6-diphenyl-3,4-dihydropyrimidin-2(1H)-one] was less than 1000 nM; that for `CCOc1cc(C2NC(=O)NC(c3ccco3)=C2c2ccccc2)cc([N+](=O)[O-])c1O` (centres unmarked) [Example 111, 4-(3-ethoxy-4-hydroxy-5-nitrophenyl)-6-(furan-2-yl)-5-phenyl-3,4-dihydropyrimidin-2(1H)-one] was less than 100 nM; that for `CCOc1cc(C2NC(=O)NC(c3ccc(C(F)(F)F)cc3)=C2c2ccccc2)cc([N+](=O)[O-])c1O` (centres unmarked) [Example 113, 4-(3-ethoxy-4-hydroxy-5-nitrophenyl)-5-phenyl-6-(4-(trifluoromethyl)phenyl)-3,4-dihydropyrimidin-2(1H)-one] was less than 100 nM. Same read-out and setting: the value for `CCOc1cc([C@@H]2NC(=O)NC(c3cnn(C)c3)=C2c2ccsc2)cc(C(=O)O)c1O` [Example 146, (S)-3-ethoxy-2-hydroxy-5-(6-(1-methyl-1H-pyrazol-4-yl)-2-oxo-5-(thiophen-3-yl)-1,2,3,4-tetrahydropyrimidin-4-yl)benzoic acid] was less than 100 nM; that for `CCOc1cc(C2NC(=O)NC(c3ccccc3)=C2c2ccccc2)cc(O)c1C(=O)O` (centres unmarked) [Example 161, 2-ethoxy-6-hydroxy-4-(2-oxo-5,6-diphenyl-1,2,3,4-tetrahydropyrimidin-4-yl)benzoic acid] was less than 100 nM; that for `O=C1NC(c2ccccc2)=C(c2ccccc2)C(c2cc(O)c(C(=O)O)c(Cl)c2)N1` (centres unmarked) [Example 163, 2-chloro-6-hydroxy-4-(2-oxo-5,6-diphenyl-1,2,3,4-tetrahydropyrimidin-4-yl)benzoic acid] was less than 100 nM. Turning to `COc1cc(C2NC(=O)NC(c3ccccc3)=C2c2ccccc2)cc(O)c1C(=O)O` (centres unmarked) [Example 165, 2-hydroxy-6-methoxy-4-(2-oxo-5,6-diphenyl-1,2,3,4-tetrahydropyrimidin-4-yl)benzoic acid], the IC50 was less than 100 nM.

As for `Cn1cc(C2=C(c3ccccc3)C(c3ccc(C(=O)O)c(O)c3)NC(=O)N2)cn1` (centres unmarked) [Example 167, 2-hydroxy-4-(6-(1-methyl-1H-pyrazol-4-yl)-2-oxo-5-phenyl-1,2,3,4-tetrahydropyrimidin-4-yl)benzoic acid], the half-inhibitory concentration (IC50) was less than 100 nM.

`Cn1cc(C2=C(c3ccsc3)[C@H](c3ccc(C(=O)O)c(O)c3)NC(=O)N2)cn1` [Example 169, (S)-2-hydroxy-4-(6-(1-methyl-1H-pyrazol-4-yl)-2-oxo-5-(thiophen-3-yl)-1,2,3,4-tetrahydropyrimidin-4-yl)benzoic acid] gave a half-inhibitory concentration (IC50) of less than 100 nM. In the case of `CN(C)CCOc1cc(C2NC(=O)NC(c3ccccc3)=C2c2ccccc2)cc([N+](=O)[O-])c1O` (centres unmarked) [Example 170, 4-(3-(2-(dimethylamino)ethoxy)-4-hydroxy-5-nitrophenyl)-5,6-diphenyl-3,4-dihydropyrimidin-2(1H)-one], the IC50 was less than 1000 nM. Molecule `CCOc1cc(C2NC(=O)NC(C3CCCC3)=C2c2ccccc2)cc([N+](=O)[O-])c1O` (centres unmarked) [Example 172, 6-cyclopentyl-4-(3-ethoxy-4-hydroxy-5-nitrophenyl)-5-phenyl-3,4-dihydropyrimidin-2(1H)-one] showed a half-inhibitory concentration (IC50) of less than 100 nM. The molecule `CCOc1cc(C2NC(=O)NC(C3CCCCC3)=C2c2ccsc2)cc([N+](=O)[O-])c1O` (centres unmarked) [Example 174, 6-cyclohexyl-4-(3-ethoxy-4-hydroxy-5-nitrophenyl)-5-(thiophen-3-yl)-3,4-dihydropyrimidin-2(1H)-one] returned an IC50 of less than 100 nM.

For `CCOc1cc(C2NC(=O)NC(c3ccccc3)=C2C2CCCCC2)cc([N+](=O)[O-])c1O` (centres unmarked) [Example 177, 5-cyclohexyl-4-(3-ethoxy-4-hydroxy-5-nitrophenyl)-6-phenyl-3,4-dihydropyrimidin-2(1H)-one], the IC50 was less than 100 nM.

Source of the values: patent US8741915B2, “Dihydropyrimidin-2(1H)-one compounds as S-nitrosoglutathione reductase inhibitors” (N30 Pharmaceuticals, Inc., priority 2009, dated 2014).
